# Reference: publication PMC4721142, “Randomized controlled studies on the efficacy of antiarthritic agents in inhibiting cartilage degeneration and pain associated with progression of osteoarthritis in the rat” (Arthritis Research & Therapy, 2016)
# Where two headings read alike, the source gives them in different places.
# Columns and labels:
# [1] = tested on: Normal human articular chondrocytes; test: Cytotoxicity to chondrogenic pellets (CellTiter-Blue)
# Procedure: Differentiated chondrogenic pellets were used both to test the ability of drugs to block MMP-13 activity and to test for drug toxicity. […] Supernatants were collected and analyzed for MMP-13 using an enzyme-linked immunosorbent assay (GE Healthcare Life Sciences, Little Chalfont, UK). Cytotoxicity to pellets was assessed using CellTiter-Blue (Promega).
# NF-κB = test: TNF-α-stimulated NF-κB dual luciferase reporter assay in HeLa cells; format: cell-based
# Procedure: NF-κB activity was assessed using a previously described dual plasmid reporter system. HeLa cells were transfected with NF-κB luciferase (Stratagene Products Division, Agilent Technologies, La Jolla, CA, USA) and pRLuc-N3 (PerkinElmer, Waltham, MA, USA) at an 8:1 ratio, respectively, in triplicate. […] NF-κB activity was measured 5 h later with a Dual-Glo Luciferase Assay (Promega, Madison, WI, USA) and an Omni plate reader (BMG Labtech, Cary, NC, USA). The ratio of firefly luciferase luminescence (NF-κB reporter) to Renilla luciferase luminescence (control) was normalized for the number of viable transfected cells. Data are reported as a ratio of activity of viable treated cells over the activity of cells not exposed to TNF-α or drug (fold stimulation above basal untreated levels of activity). The viability of HeLa cells with and without drug was also measured using a CellTiter-Glo luminescent viability assay (Promega). […]
# NF-κB activity was assessed in HeLa cells that were transiently transfected with two reporter constructs as described in the manuscript. Agents were tested for their ability to block TNF- […]
# Expression of the luciferase from the Renilla construct was used as a measure of viability, which was confirmed with a cytotoxicity assay (see later section).
# RAW 264.7 cells = test: RANKL-mediated osteoclastogenesis / matrix resorption (Osteologic) assay; format: cell-based, murine; details: for minimal effective concentration: Mus musculus, RAW264.7, 168 h, read-out: Lowest inhibitory concentration, matrix resorption
# Procedure: RAW 264.7 cells (American Type Culture Collection [ATCC], Manassas, VA, USA), a murine monocytic cell line that differentiates in the presence of RANKL, was used for measurements of osteoclastogenesis and osteoclast activity. Cells were amplified on nonadherent culture substratum in high-glucose Dulbecco’s modified Eagle’s medium (DMEM) containing 10 % fetal bovine serum (FBS) and penicillin-streptomycin in a 37 °C, 5 % CO2, humidified incubator and were passaged by manual dissociation. […] Plates were subsequently rinsed, bleached, dried, and analyzed for matrix degradation using a Nikon COOLSCOPE (Nikon Instruments, Melville, NY, USA). Matrix resorption was quantified using EclipseNet (Nikon Instruments)/Visiopharm (Visiopharm, Hørsholm, Denmark) software (see Additional file 1).
# In Vitro Osteoclastogenesis
# Osteoclastogenic activity was measured using BD osteologic plates and quantitation of the degree of bone matrix digestion on the plate surface. Images from the BD Osteologic assay used to […]
# left pane depicts an example of a control well after removal of cells from matrix. Pseudocoloring of matrix (blue) and pits (green) is shown in the far right pane. A transparent overlay of the two images is shown in the center.
# Figure 5 - Measurement of drug effects on osteoclastogenesis and osteoclast activity.
# Comparisons were made between RANKL treated control wells and wells treated with both RANKL and […]
# Agents were initially tested either during differentiation or post differentiation in the bone assay […]
# (e.g., Figure 2, Sulfazalazine). […]
# indicated (*/**: p < 0.05/0.01, unpaired t-test versus RANKL control). […]
# [2] = published half-life; cited from earlier work
# SW982 = test: Synovial toxicity (CellTiter-Glo), with or without TNF-α
# Procedure: Viability was measured with the CellTiter-Glo luminescent viability assay (Promega). […] To more accurately predict the effects of the drugs on osteoarthritic synovium, cells were tested with or without TNF-α (20 ng/ml; BioSource).
# In Vitro Toxicity Testing with a Synovial Cell Line
# Compounds were tested for synovial toxicity using SW982 cells alone or in the presence of TNF as
# [3] = Comparison of in vitro screens: overlapping effective and nontoxic range; details: for Overlapping effective and nontoxic range: inhibits with minimal or no toxicity to synovium or cartilage, overlapping range if effective in more than one assay;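 for all read-outs here: compares non-toxic ranges in synovial cells and chondrocytes with effective ranges against NFkB, MMP-13 and osteoclasts, giving their overlap as the predicted efficacy range in uM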
# HeLa cells = test: HeLa cell viability (CellTiter-Glo)
# Procedure: NF-κB activity was assessed using a previously described dual plasmid reporter system. HeLa cells were transfected with NF-κB luciferase (Stratagene Products Division, Agilent Technologies, La Jolla, CA, USA) and pRLuc-N3 (PerkinElmer, Waltham, MA, USA) at an 8:1 ratio, respectively, in triplicate. […] NF-κB activity was measured 5 h later with a Dual-Glo Luciferase Assay (Promega, Madison, WI, USA) and an Omni plate reader (BMG Labtech, Cary, NC, USA). The ratio of firefly luciferase luminescence (NF-κB reporter) to Renilla luciferase luminescence (control) was normalized for the number of viable transfected cells. Data are reported as a ratio of activity of viable treated cells over the activity of cells not exposed to TNF-α or drug (fold stimulation above basal untreated levels of activity). The viability of HeLa cells with and without drug was also measured using a CellTiter-Glo luminescent viability assay (Promega).
# In Vitro Hela Cell Drug Toxicity Testing
# Potential drug toxicity was measured using a CTG assay and HeLa cells (Promega). Drugs not tested in
# this assay were tested in either of the in vitro toxicity assays already presented (synovial or chondrocyte
# Table 3- Drug toxicity measured using a CTG assay and HeLa cells.
# MMP-13 = MMP-13 ELISA on supernatants of TNF-α-treated chondrogenic pellets; format: cell-based, human; details: for Concentration inhibiting MMP-13: > = failed to inhibit up to highest concentration tested
Compound,Non-toxic range (Chondrocyte) [1],t 1/2 [2],Non-toxic range (Synovial) (SW982) [µM],Non-toxic & predicted range of efficacy [3],Effective range against Osteoclasts (RAW 264.7 cells),Overlapping effective and nontoxic range [3],further results
Oc1ccc(/C=C/c2cc(O)cc(O)c2)cc1 [Resveratrol],3.12 to 200 µM,Suppresses IL-1β signaling and IL-1β-stimulated apoptosis in osteoarthritis [98] A natural inhibitor of NF-κB [99] t 1/2 = 1–3 h,3.12 to 100,,,,"Effective range against NFkB (NF-κB): Not effective; Lowest inhibitory concentration, matrix resorption (RAW 264.7 cells): 6.25 µM"
O=C(O)c1cc(O)c2c(c1)C(=O)c1cccc(O)c1C2=O [Rhein],0.625 to 40 µM,Anthraquinone-active metabolite of diacerein Reduces proliferation of chondrocytes and synoviocytes; inhibits NF-κB activation in vitro [101] t 1/2 = 4.3 h,625000 to 4e+07,40 µM,Not effective,,Effective against NF κβ (p<0.05) (NF-κB): Only at toxic; Non-toxic concentrations (HeLa cells): 2.5 to 20 µM
CC[C@@H]1/C=C(\C)C[C@H](C)C[C@H](OC)[C@H]2O[C@@](O)(C(=O)C(=O)N3CCCC[C@H]3C(=O)O[C@H](/C(C)=C/[C@@H]3CC[C@H](Cl)[C@H](OC)C3)[C@H](C)[C@@H](O)CC1=O)[C@H](C)C[C@@H]2OC [Pimecrolimus],0.625 to 40 µM,"Ascomycin macrolactam derivative Like tacrolimus, a calcineurin inhibitor that inhibits release of inflammatory cytokines [97] t 1/2 = 30–100 h",0.625 to 40,2.5 to 40 µM,,2.5 to 20 µM,minimal effective concentration (RAW 264.7 cells): 0.01 µM; Effective range against MMP-13 (MMP-13): Not effective; Concentration inhibiting MMP-13 (MMP-13): > 40 µM
"Cc1ccc(S(=O)(=O)/C=C/C#N)cc1 [BAY-117082, BAY-11-7082]",0.18 to 1.5 µM,,3 to 6,None,≥ 3 µM,6 to 192 µM,Effective against NF κβ (p<0.05) (NF-κB): 12 to 96 µM; Effective range against NFkB (NF-κB): 12 to 96 µM; Non-toxic concentrations (HeLa cells): 6 to 96 µM; Effective range against MMP-13 (MMP-13): ≥ 0.75 µM; Concentration with notable toxicity (SW982): 12 µM
O=C(O)c1cc(/N=N/c2ccc(S(=O)(=O)Nc3ccccn3)cc2)ccc1O [Sulfasalazine],12.5 to 800 µM,NSAID t 1/2 = 5 – 10 h,12.5 to 400,50 to 400 µM,,150 to 1600 µM,
CC1(C)O[C@@H]2C[C@H]3[C@@H]4CCC5=CC(=O)C=C[C@]5(C)[C@@]4(F)[C@@H](O)C[C@]3(C)[C@]2(C(=O)CO)O1 [Triamcinolone acetonide],,Steroid t 1/2 = 88 min,0.7 to 250,31.25 to 500 µM,,250 to 500 µM,"Lowest inhibitory concentration, matrix resorption (RAW 264.7 cells): 250 µM"
CC1=C(CC(=O)O)c2cc(F)ccc2/C1=C\c1ccc([S+](C)[O-])cc1 (centres unmarked) [Sulindac],4.35 to 280 µM,NSAID t 1/2 = 7.8 h,4.4 to 280,8.8 to 280 µM,,280 µM,Non-toxic concentrations (HeLa cells): 8.75 to 70 µM
CC[C@@H]1/C=C(\C)C[C@H](C)C[C@H](OC)[C@H]2O[C@@](O)(C(=O)C(=O)N3CCCC[C@H]3C(=O)O[C@H](/C(C)=C/[C@@H]3CC[C@@H](O)[C@H](OC)C3)[C@H](C)[C@@H](O)CC1=O)[C@H](C)C[C@@H]2OC [Ascomycin],0.625 to 40 µM,,625000 to 4e+07,1.25 to 40 µM,,1.25 to 40 µM,minimal effective concentration (RAW 264.7 cells): 0.01 µM; Effective range against MMP-13 (MMP-13): Not effective; Concentration inhibiting MMP-13 (MMP-13): > 40 µM
CC(=O)Oc1cccc2c1C(=O)c1c(OC(C)=O)cc(C(=O)O)cc1C2=O [Diacerein],All toxic,,1.5 to 54.3,None,,Toxic to chondrocytes,"Non-toxic concentrations (HeLa cells; (TNF), i.e. without TNF): 0 to 1.375e+07 µM; Non-toxic concentrations (HeLa cells; +TNF): 0 to 2.275e+07 µM; Toxic concentrations (p<0.05) (HeLa cells; with TNF): 50 to 110 M"
Epigallocatechin-3-gallate [EGCG],690000 to 4.4e+07 µM,,690000 to 4.4e+07,5.5 to 44 µM,None?,5.5 to 44 µM,Effective range against NFkB (NF-κB): 5.5 to 88 µM; Effective range against MMP-13 (MMP-13): ≥ 5.5 µM
Nc1cc(-c2ccncc2)c[nH]c1=O [Amrinone],1.25 to 80 µM,,1.25 to 40,≥ 80 µM,Not effective,80 µM,"Effective range against NFkB (NF-κB): None; MMP-13, effective concentration (MMP-13; number printed in the class column): 80"
O=C(c1ccccc1)c1ccc2n1CCC2C(=O)O (centres unmarked) [Keterolac],3.17 to 200 µM,,0.625 to 40,≥ 12.5 µM,Not effective,,
COc1ccc(CCN(C)CCCC(C#N)(c2ccc(OC)c(OC)c2)C(C)C)cc1OC (centres unmarked) [Verapamil],,,,,Not effective,,
CNC(=O)[C@H](Cc1c[nH]c2ccccc12)NC(=O)[C@@H](CC(=O)NO)CC(C)C [GM6001],0.4 to 25 µM,,0.33 to 25,,Not effective,,"MMP-13, effective concentration (MMP-13): 25"
